Laboratory results taken from the supplement of paper PMC13380429.

How the values were obtained:
HepG2 [1] = test: relative viability EC50 (midpoint between 100% and the lowest measured viability); higher = less toxic; conditions: 72 h
Caco-2 [2] = test: as above; conditions: 72 h
U2OS [3] = test: as above; conditions: 72 h
Vero E6 [4] = test: as above; conditions: 72 h
[5] = system: A549-ACE2 infected with SARS-CoV-2; test: SARS-CoV-2 infection rate relative to DMSO; higher = more infection; conditions: 24 h
[6] = system: A549-ACE2 infected with SARS-CoV-2; test: cell count relative to DMSO; higher = less toxic; conditions: 24 h
HepG2 [7] = test: cell viability relative to DMSO; higher = less toxic; conditions: 72 h
Calu-3 [8] = test: as above; conditions: 72 h
Caco-2 [9] = test: as above; conditions: 72 h
U2OS [10] = test: as above; conditions: 72 h
Vero E6 [11] = test: as above; conditions: 72 h
A549-ACE2 = test: drug-induced phospholipidosis relative to tamoxifen; higher = more phospholipidosis
HepG2 [12] = test: drug sensitivity score (DSS) for viability; higher = more toxic; extreme values may be limits of the assay; conditions: 72 h
Calu-3 [13] = test: as above; conditions: 72 h
Caco-2 [14] = test: as above; conditions: 72 h
U2OS [15] = test: as above; conditions: 72 h
Vero E6 [16] = test: as above; conditions: 72 h
[17] = system: A549-ACE2 infected with SARS-CoV-2; test: morphology score (similarity to uninfected cells); higher = more like uninfected cells; conditions: 24 h
Calu-3 [18] = test: relative viability EC50 (midpoint between 100% and the lowest measured viability); higher = less toxic; conditions: 72 h

c1cnc2c([O][Ga]([O]c3cccc4cccnc34)[O]c3cccc4cccnc34)cccc2c1 [gallium-triquinolin-8-olate]
Conditions | drug sensitivity score | relative viability EC50 [nM]
Caco-2 [2] | – | 3850
Caco-2 [14] | 4.3 | –
Calu-3 [13] | 2 | –
HepG2 [1] | – | 2960
HepG2 [12] | 5.8 | –
U2OS [3] | – | 3340
U2OS [15] | 4.2 | –
Vero E6 [4] | – | > 10000
Vero E6 [16] | 0 | –

Conditions | SARS-CoV-2 infection rate, [5] [%] | cell count, [6] [%] | cell viability, Caco-2 [9] [%] | cell viability, Calu-3 [8] [%] | cell viability, HepG2 [7] [%] | cell viability, U2OS [10] [%] | cell viability, Vero E6 [11] [%] | morphology score, [17]
1 nM | – | – | 94.3 | 95.9 | 96.5 | 97 | 116 | –
10 nM | – | – | 104 | 111 | 102 | 105 | 103 | –
100 nM | – | – | 89.1 | 97.6 | 118 | 100 | 106 | –
0.3 µM | 98 | 103 | – | – | – | – | – | 0.25
1000 nM | – | – | 116 | 110 | 97.1 | 102 | 102 | –
3 µM | 50 | 73 | – | – | – | – | – | 0.64
10 µM | 23 | 69 | – | – | – | – | – | 0.75
10000 nM | – | – | 6.6 | 51.7 | 2.2 | 19.7 | 87.7 | –
30 µM | 23 | 35 | – | – | – | – | – | 0.35

drug-induced phospholipidosis [%], A549-ACE2
Conditions | 0.3 µM | 0.833333 µM | 3.33333 µM
24 h | 3.04 | 1.03 | -5.09
48 h | 1.4 | -0.94 | –
72 h | 3.03 | 0.0941 | –

C/C(=N\NC(=S)N1CCC1)c1ccccn1
Conditions | drug sensitivity score | relative viability EC50 [nM]
Caco-2 [2] | – | 2.4
Caco-2 [14] | 38.4 | –
Calu-3 [13] | 18 | –
Calu-3 [18] | – | 90.7
HepG2 [1] | – | 14.8
HepG2 [12] | 32.8 | –
U2OS [3] | – | 122
U2OS [15] | 18.8 | –
Vero E6 [4] | – | 206
Vero E6 [16] | 16.4 | –

Conditions | SARS-CoV-2 infection rate, [5] [%] | cell count, [6] [%] | cell viability, Caco-2 [9] [%] | cell viability, Calu-3 [8] [%] | cell viability, HepG2 [7] [%] | cell viability, U2OS [10] [%] | cell viability, Vero E6 [11] [%] | morphology score, [17]
1 nM | – | – | 91.8 | 97.3 | 104 | 101 | 102 | –
10 nM | – | – | 14.9 | 102 | 74.3 | 101 | 96.6 | –
0.1 µM | 104 | 96 | – | – | – | – | – | -0.24
100 nM | – | – | 17.9 | 56.8 | 5.6 | 59 | 70.5 | –
0.3 µM | 104 | 95 | – | – | – | – | – | -0.09
1 µM | 104 | 89 | – | – | – | – | – | -0.19
1000 nM | – | – | 39.6 | 38.4 | 11.4 | 28.1 | 31.3 | –
3 µM | 68 | 88 | – | – | – | – | – | 0.17
10000 nM | – | – | 34 | 25.4 | 21 | 15.4 | 14.5 | –

drug-induced phospholipidosis [%], A549-ACE2
Conditions | 0.3 µM | 0.833333 µM | 3.33333 µM | 6.66667 µM | 10 µM | 30 µM
24 h | 11.7 | 5.99 | 0.42 | -4.61 | -12.7 | -11.9
48 h | – | – | – | – | -6.55 | –
